The subject of one experiment is breast cancer cell lines. Put plainly: Association of growth rate and response (2-way ANCOVA). The format is cell-based, human. The source says: To assess the effects of cell line class and growth rate on drug sensitivity, we performed a set of 2-way Analysis of Covariance (ANCOVA) tests, one for each of the three cell line classification schemes described above. […] We performed these analyses in R with the functions lm and ANOVA, which is available as part of the car package.

The test system of experiment [1] is panel of 55 breast cancer cell lines. Put plainly: Cell growth inhibition assay (Cell Titer Glo, 72 h, 9 doses; GI50, TGI, LC50). The format is cell-based, human. The following applies: value is the negative log10 of mol/L.
The subject of experiment [2] is luminal, basal, claudin-low and ERBB2AMP breast cancer cell lines. Briefly: Associations of clinically relevant subtypes and response (non-parametric ANOVA or t-test on GI50 ranks). Format: cell-based, human. The gist of the method: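 GI50 values were compared between cell-line subtype groups by non-parametric ANOVA or t-test on ranks. P-values from three test sets were combined and FDR-corrected. Significant three-group effects were followed by post-hoc comparison of each group against all others, and FDR p<0.20 counted as significant.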

Experiment [3] has as its system TCR-activated CD4(+) T cells. The conditions noted are these: cited from earlier work.

“Also recorded” adds a separate entry of the source.

`O=c1[nH]cc(F)c(=O)[nH]1` [5-FU, 5-florouracil]: the “significance of subtype and doubling time in ANCOVA model” value with breast cancer cell lines (listed as 5-florouracil) is “not significant in the subtype test alone but showed strong significance in the ANCOVA model for both class and doubling time”; in the experiment with breast cancer cell lines (listed as 5′FU) it was “strong effects of both subtype and growth rate on response”. Besides, in the experiment with breast cancer cell lines (luminal and basal cell lines), the “response as a function of doubling time” value is “decreased as doubling time increased in both luminal and basal cell lines”.
With `Cc1cc(Nc2cc(N3CCN(C)CC3)nc(Sc3ccc(NC(=O)C4CC4)cc3)n2)n[nH]1` [VX-680], the GI50 turned out to be 5.66 in experiment [1] (AU565 cell line, censored GI50 values); 4.72 in experiment [1] (BT20 cell line, censored GI50 values); 4.54 in experiment [1] (BT474 cell line, censored GI50 values); 5.44 in experiment [1] (BT483 cell line, censored GI50 values); 6.94 in experiment [1] (HCC38 cell line, censored GI50 values); 5.35 in experiment [1] (HCC70 cell line, censored GI50 values). In addition, the GI50 in experiment [1] (HCC1143 cell line, censored GI50 values) stood at 5.98; in experiment [1] (HCC1187 cell line, censored GI50 values) it was 6.93; in experiment [1] (HCC1419 cell line, censored GI50 values) it was 4.81; in experiment [1] (HCC1428 cell line, censored GI50 values), 5.10; in experiment [1] (HCC1500 cell line, censored GI50 values), 4.56; in experiment [1] (HCC1937 cell line, censored GI50 values) it was 5.10. Moreover, the GI50 is 6.46 in experiment [1] (HCC2185 cell line, censored GI50 values); 4.76 in experiment [1] (HCC3153 cell line, censored GI50 values); 5.08 in experiment [1] (MCF7 cell line, censored GI50 values); 6.11 in experiment [1] (MDAMB134VI cell line, censored GI50 values); 4.61 in experiment [1] (MDAMB175VII cell line, censored GI50 values); 5.63 in experiment [1] (MDAMB361 cell line, censored GI50 values). Besides, the GI50 in experiment [1] (MDAMB415 cell line, censored GI50 values) came out at 4.86; in experiment [1] (MDAMB436 cell line, censored GI50 values) it was 6.19; in experiment [1] (MDAMB453 cell line, censored GI50 values), 5.03; in experiment [1] (MDAMB468 cell line, censored GI50 values), 6.95; in experiment [1] (SUM52PE cell line, censored GI50 values), 6.41; in experiment [1] (SUM149PT cell line, censored GI50 values), 5.07. In addition, the GI50 in experiment [1] (SUM159PT cell line, censored GI50 values) is recorded as 6.37; in experiment [1] (SUM185PE cell line, censored GI50 values), 5.62; in experiment [1] (SUM1315MO2 cell line, censored GI50 values), 5.65; in experiment [1] (T47D cell line, censored GI50 values), 5.03; in experiment [1] (ZR75B cell line, censored GI50 values), 6.79; in experiment [1] (ZR751 cell line, censored GI50 values) it was 5.27. Moreover, the GI50 in experiment [1] (cell line AU565) came to 5.66; in experiment [1] (cell line BT20) it was 4.72; in experiment [1] (cell line BT474), 4.54; in experiment [1] (cell line BT483), 5.44; in experiment [1] (cell line CAMA1) it was 4.58; in experiment [1] (cell line HCC38), 6.94. Besides, the GI50 in experiment [1] (cell line HCC70) came to 5.35; in experiment [1] (cell line HCC1143) it was 5.98; in experiment [1] (cell line HCC1187) it was 6.93; in experiment [1] (cell line HCC1419) it was 4.81; in experiment [1] (cell line HCC1428) it was 5.10; in experiment [1] (cell line HCC1500), 4.56. Further, the GI50 came to 5.10 in experiment [1] (cell line HCC1937); 4.48 in experiment [1] (cell line HCC1954); 6.46 in experiment [1] (cell line HCC2185); 4.76 in experiment [1] (cell line HCC3153); 5.08 in experiment [1] (cell line MCF7); 6.11 in experiment [1] (cell line MDAMB134V). The GI50 in experiment [1] (cell line MDAMB175V) amounted to 4.61; in experiment [1] (cell line MDAMB361) it was 5.63; in experiment [1] (cell line MDAMB415), 4.86; in experiment [1] (cell line MDAMB436) it was 6.19; in experiment [1] (cell line MDAMB453) it was 5.03; in experiment [1] (cell line MDAMB468), 6.95. In addition, the GI50 in experiment [1] (cell line SKBR3) is 4.48; in experiment [1] (cell line SUM52PE) it was 6.41; in experiment [1] (cell line SUM149PT), 5.07; in experiment [1] (cell line SUM159PT) it was 6.37; in experiment [1] (cell line SUM185PE) it was 5.62; in experiment [1] (cell line SUM1315MO) it was 5.65. Also, the GI50 in experiment [1] (cell line T47D) came to 5.03; in experiment [1] (cell line UACC812), 4.50; in experiment [1] (cell line ZR75B), 6.79; in experiment [1] (cell line ZR751) it was 5.27. Moreover, the “association of response with ERBB2 amplification” value in experiment [2] is recorded as “negatively associated with ERBB2 amplification”. Besides, the “subtype-specific response (sensitivity by transcriptional subtype)” value in experiment [2] (GI50 across subtypes) is on record as “ERBB2^AMP cell lines were resistant; also recorded: ERBB2AMP cell lines are resistant”. Also, the Subtype specificity result in experiment [2] (Table 6, most sensitive subtype, FDR p<0.20) is reported as “not ERBB2AMP”.
For the compound `Cc1ccc(NC(=O)c2ccc(CN3CCN(C)CC3)cc2)cc1Nc1nccc(-c2cccnc2)n1` [imatinib], in experiment [3], the interferon-gamma production entry is listed as “inhibit interferon-gamma production”.

The values above are taken from patent publication US10770169B2, “Method of providing a treatment to a subject based on a dynamic pathway map” (THE REGENTS OF THE UNIVERSITY OF CALIFORNIA, priority 2010, dated 2020).
